Legend:
GST tagged PIP4KtypeIIA = biological target: T1, GST tagged PIP4KtypeIIA (Homo sapiens, UniProt P48426); assay: ADP-glo kinase assay PIP4K 2A (PIP4KtypeIIA inhibition assay); format: biochemical; conditions: Table 3; compounds listed under IC50 range headings; 10 uM ATP, 0.5 nM PIP4KIIA
T1 construct: made in house; host or cells: E. coli
T1 sequence (P48426 1-406): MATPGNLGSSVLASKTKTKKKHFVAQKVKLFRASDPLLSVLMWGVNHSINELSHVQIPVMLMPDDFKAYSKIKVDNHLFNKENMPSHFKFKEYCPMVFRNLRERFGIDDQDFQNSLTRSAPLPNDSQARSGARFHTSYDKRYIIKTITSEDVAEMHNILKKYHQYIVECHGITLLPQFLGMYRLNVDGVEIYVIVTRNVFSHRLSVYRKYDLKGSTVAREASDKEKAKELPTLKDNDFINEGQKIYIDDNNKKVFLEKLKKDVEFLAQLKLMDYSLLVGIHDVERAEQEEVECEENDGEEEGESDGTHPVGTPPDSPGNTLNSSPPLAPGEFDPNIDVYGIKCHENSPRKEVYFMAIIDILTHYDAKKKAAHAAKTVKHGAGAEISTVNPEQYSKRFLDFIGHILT
Description: GST tagged PIP4KtypeIIA and B enzymes were overexpressed in E. Coli and purified to >80% homogeneity. Phosphatidyl inositol-5-phosphate (PI5P, Cat. #850152, Avanti Polar Lipids Inc.) was used as the lipid substrate and phosphatidyl ethanolamine (DOPE 18:1, Cat. #850725, Avanti Polar Lipids Inc.) was used as the carrier lipid for assays. Ultrapure ATP and GTP was purchased from Bellbrooke Labs. ADP Glo reagents were obtained from Promega. Transcreener FI reagent was obtained from Bellbrooke labs.
1. HEPES buffer mix: 200 mM HEPES pH 7.4, 50 mM MgCl2, 0.05% v/v triton×100
2. HNE buffer: 20 mM HEPES, pH 7.4, 100 mM NaCl, 0.5 mM EGTA
3. H:E buffer: 30 mM HEPES, pH 7.4, 1 mM EGTA
Enzyme preparation: GST-tagged PIP4KtypeIIA (5 uL, 1.43 mg/mL) was diluted (1:10) to 50 uL using HNE buffer. From the 1:10 diluted stock, a 6.4 uL aliquot was diluted further to 5 mL using HNE buffer to yield 5× enzyme stock (2.5 nM).
Lipid Preparation: In a 10 mL pyrex glass vial, lug of PI5P and lug of DOPE were suspended in 2.5 mL of HEPES buffer mix and 2.5 mL of H:E buffer. The contents were mixed and sonicated for 3 min to yield a translucent lipid stock.
Compound Preparation: Compounds were stored as 5 mM stocks in neat DMSO as room temperature in glass vials. 5 mM stocks were diluted to 2 mM and then serially diluted (3×) in neat DMSO in 96 well polypropylene plates. From the serially diluted stocks, 3 uL was delivered into 250 uL of 25% DMSO (in water) to generate 5× compound stocks. Typically, the highest compound conc. was 24 uM.
The assay volume was kept at 25 uL. To each well of the reaction plate, 10 uL of lipid stock (1:1 ratio PI5P:DOPE) was delivered. This was followed by the addition of 5 uL of compound in 25% DMSO. Then, to each well, 5 uL of 2.5 nM (5×) typeIIA enzyme was delivered. The contents were mixed well and incubated for 1 h at 27 C. After 1 h, reaction was initiated by adding 5 uL of 50 uM ATP and the contents were mixed well with a multi-channel pipetteman. The final concentration of the reagents are as follows: 50 mM HEPES, pH 7.3, 10 mM MgCl2, 20 mM NaCl, 0.01% v/v triton-X100, 5% DMSO, 10 uM ATP, 80 uM (2 ug) PI5P, 2 ug DOPE, and 0.5 nM PIP4KIIA. Typically, the highest conc. of compounds was 4.8 uM and the lowest conc. was 0.
After 1 hr, the reaction was quenched by adding 25 uL of ADP Glo reagent. The contents were incubated for 1 hr. Afterwards, 50 uL of kinase detection reagent was delivered. The contents were incubated for another hour. The luminescence was read using Molecular Devices Paradigm plate reader. […] The blanks were averaged and subtracted from all other wells. Using a calibration curve, RLU was converted to uM ADP (product). IC50 was calculated by plotting the residual activity (expressed as % No inhibitor control) vs. log [Inh. conc.]

GST tagged PIP4KtypeIIB = biological target: T2, GST tagged PIP4KtypeIIB (Homo sapiens, UniProt P78356); assay: Trans-FI P kinase assay PIP4K2B (PIP4KtypeIIB inhibition assay); format: biochemical; conditions: Table 4; compounds listed under IC50 range headings; 100 uM GTP, 5 nM PIP4KIIB; read-out: Trans-FI P kinase assays: PIP4K2B IC50
T2 construct: made in house; host or cells: E. coli
T2 sequence (P78356 1-416): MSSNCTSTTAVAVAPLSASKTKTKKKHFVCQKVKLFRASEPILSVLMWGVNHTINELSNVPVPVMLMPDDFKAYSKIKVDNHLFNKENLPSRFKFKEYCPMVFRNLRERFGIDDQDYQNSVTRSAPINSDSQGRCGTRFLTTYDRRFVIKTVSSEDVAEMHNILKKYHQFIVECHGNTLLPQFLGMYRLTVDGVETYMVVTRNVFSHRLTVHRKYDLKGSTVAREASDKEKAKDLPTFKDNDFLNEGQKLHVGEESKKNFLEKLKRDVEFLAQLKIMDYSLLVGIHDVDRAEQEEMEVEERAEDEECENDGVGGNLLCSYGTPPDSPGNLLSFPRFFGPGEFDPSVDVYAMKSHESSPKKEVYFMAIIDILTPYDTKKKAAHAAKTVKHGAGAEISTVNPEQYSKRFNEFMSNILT
In short: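 Transcreener FI fluorescence, converted to GDP by calibration, tracked product from 5 nM E. coli-expressed GST-PIP4KIIB acting on 80 uM PI5P (DOPE carrier) with 100 uM GTP. Compound (top 4.8 uM final, 5% DMSO) was preincubated 1 h at 27 C before the 2 h reaction; IC50 fitted from residual activity.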

Row | Compound | IC50 (GST tagged PIP4KtypeIIA) [nM] | IC50 (GST tagged PIP4KtypeIIB) [nM]
1 | O=C(NCc1ccccc1)c1cc2c(-c3cncc(-c4ccc(N5CCCC5=O)cc4)c3)ccnc2[nH]1 [Example 232, N-benzyl-4-(5-(4-(2-oxopyrrolidin-1-yl)phenyl)pyridin-3-yl)-1H-pyrrolo[2,3-b]pyridine-2-carboxamide] | 100 to 1000 | 10 to 100
2 | O=C(NCc1ccncc1)c1cc2c(-c3cncc(-c4ccc(N5CCCC5=O)cc4)c3)ccnc2[nH]1 [Example 233, 4-(5-(4-(2-oxopyrrolidin-1-yl)phenyl)pyridin-3-yl)-N-(pyridin-4-ylmethyl)-1H-pyrrolo[2,3-b]pyridine-2-carboxamide] | 100 to 1000 | 10 to 100
3 | CC(C)CNC(=O)c1cc2c(-c3cncc(-c4ccc(N5CCCC5=O)cc4)c3)ccnc2[nH]1 [Example 234, N-isobutyl-4-(5-(4-(2-oxopyrrolidin-1-yl)phenyl)pyridin-3-yl)-1H-pyrrolo[2,3-b]pyridine-2-carboxamide] | 100 to 1000 | 10 to 100
4 | O=C(c1cc2c(-c3cncc(-c4ccc(N5CCCC5=O)cc4)c3)ccnc2[nH]1)N1CCCC1 [Example 235, 1-(4-(5-(2-(pyrrolidine-1-carbonyl)-1H-pyrrolo[2,3-b]pyridin-4-yl)pyridin-3-yl)phenyl)pyrrolidin-2-one] | 100 to 1000 | 100 to 1000
5 | O=C(NCCc1ccccc1)c1cc2c(-c3cncc(-c4ccc(N5CCCC5=O)cc4)c3)ccnc2[nH]1 [Example 236, 4-(5-(4-(2-oxopyrrolidin-1-yl)phenyl)pyridin-3-yl)-N-phenethyl-1H-pyrrolo[2,3-b]pyridine-2-carboxamide] | 100 to 1000 | 10 to 100
6 | O=C(NCCc1cccnc1)c1cc2c(-c3cncc(-c4ccc(N5CCCC5=O)cc4)c3)ccnc2[nH]1 [Example 237, 4-(5-(4-(2-oxopyrrolidin-1-yl)phenyl)pyridin-3-yl)-N-(2-(pyridin-3-yl)ethyl)-1H-pyrrolo[2,3-b]pyridine-2-carboxamide] | 100 to 1000 | 10 to 100
7 | O=C(NCc1cccnc1)c1cc2c(-c3cncc(-c4ccc(N5CCCC5=O)cc4)c3)ccnc2[nH]1 [Example 238, 4-(5-(4-(2-oxopyrrolidin-1-yl)phenyl)pyridin-3-yl)-N-(pyridin-3-ylmethyl)-1H-pyrrolo[2,3-b]pyridine-2-carboxamide] | 100 to 1000 | 10 to 100
8 | O=C(NCc1ccccn1)c1cc2c(-c3cncc(-c4ccc(N5CCCC5=O)cc4)c3)ccnc2[nH]1 [Example 239, 4-(5-(4-(2-oxopyrrolidin-1-yl)phenyl)pyridin-3-yl)-N-(pyridin-2-ylmethyl)-1H-pyrrolo[2,3-b]pyridine-2-carboxamide] | 100 to 1000 | 10 to 100
9 | CNC(=O)c1cc2c(-c3cncc(-c4ccc(N5CCCC5=O)cc4)c3)ccnc2[nH]1 [Example 240, N-methyl-4-(5-(4-(2-oxopyrrolidin-1-yl)phenyl)pyridin-3-yl)-1H-pyrrolo[2,3-b]pyridine-2-carboxamide] | 100 to 1000 | 10 to 100
10 | O=C(NC1CC1)c1cc2c(-c3cncc(-c4ccc(N5CCCC5=O)cc4)c3)ccnc2[nH]1 [Example 242, N-cyclopropyl-4-(5-(4-(2-oxopyrrolidin-1-yl)phenyl)pyridin-3-yl)-1H-pyrrolo[2,3-b]pyridine-2-carboxamide] | 100 to 1000 | 10 to 100
11 | O=C(NCCc1ncc[nH]1)c1cc2c(-c3cncc(-c4ccc(N5CCCC5)cc4)c3)ccnc2[nH]1 [Example 244, N-(2-(1H-imidazol-2-yl)ethyl)-4-(5-(4-(pyrrolidin-1-yl)phenyl)pyridin-3-yl)-1H-pyrrolo[2,3-b]pyridine-2-carboxamide] | 100 to 1000 | 10 to 100
12 | O=C(NCc1nc2ccccc2o1)c1cc2c(-c3cncc(-c4ccc(N5CCCC5=O)cc4)c3)ccnc2[nH]1 [Example 245, N-(benzo[d]oxazol-2-ylmethyl)-4-(5-(4-(2-oxopyrrolidin-1-yl)phenyl)pyridin-3-yl)-1H-pyrrolo[2,3-b]pyridine-2-carboxamide] | > 5000 | 10 to 100
13 | O=C(NCCc1ccccn1)c1cc2c(-c3cncc(-c4ccc(N5CCCC5=O)cc4)c3)ccnc2[nH]1 [Example 246, 4-(5-(4-(2-oxopyrrolidin-1-yl)phenyl)pyridin-3-yl)-N-(2-(pyridin-2-yl)ethyl)-1H-pyrrolo[2,3-b]pyridine-2-carboxamide] | 100 to 1000 | 10 to 100
14 | O=C(NCCc1ccncc1)c1cc2c(-c3cncc(-c4ccc(N5CCCC5=O)cc4)c3)ccnc2[nH]1 [Example 247, 4-(5-(4-(2-oxopyrrolidin-1-yl)phenyl)pyridin-3-yl)-N-(2-(pyridin-4-yl)ethyl)-1H-pyrrolo[2,3-b]pyridine-2-carboxamide] | 100 to 1000 | 10 to 100
15 | COC(=O)c1cc2c(-c3cncc(-c4ccc(N5CCCC5=O)cn4)c3)ccnc2[nH]1 [Example 248, methyl 4-(5-(2-oxopyrrolidin-1-yl)-[2,3′-bipyridin]-5′-yl)-1H-pyrrolo[2,3-b]pyridine-2-carboxylate] | 1000 to 2500 | 100 to 1000
16 | O=C(NCCc1nn[nH]n1)c1cc2c(-c3cncc(-c4ccc(N5CCCC5=O)cc4)c3)ccnc2[nH]1 [Example 251, N-(2-(2H-tetrazol-5-yl)ethyl)-4-(5-(4-(2-oxopyrrolidin-1-yl)phenyl)pyridin-3-yl)-1H-pyrrolo[2,3-b]pyridine-2-carboxamide] | 100 to 1000 | 10 to 100
17 | CN(C)C(=O)c1cnc2[nH]c(C3CC3)c(-c3cncc(-c4ccc(N5CCCC5=O)cc4)c3)c2c1 [Example 252, 2-cyclopropyl-N,N-dimethyl-3-(5-(4-(2-oxopyrrolidin-1-yl)phenyl)pyridin-3-yl)-1H-pyrrolo[2,3-b]pyridine-5-carboxamide] | 10 to 100 | 10 to 100
18 | O=C1CCCN1c1ccc(-c2cncc(-n3ccc4ncccc43)c2)cc1 [Example 253, 1-(4-(5-(1H-pyrrolo[3,2-b]pyridin-1-yl)pyridin-3-yl)phenyl)pyrrolidin-2-one] | 100 to 1000 | 100 to 1000
19 | CN(C)C(=O)c1cnc2ccn(-c3cncc(-c4ccc(N5CCCC5=O)cc4)c3)c2c1 [Example 254, N,N-dimethyl-1-(5-(4-(2-oxopyrrolidin-1-yl)phenyl)pyridin-3-yl)-1H-pyrrolo[3,2-b]pyridine-6-carboxamide] | 100 to 1000 | 100 to 1000
